Patent US20160185837A1 (Medimmune Limited, priority 2013, published 2016)
pEC50: −log10 of the molar value. Like-named read-outs stand apart in the source and are kept apart here. Ends that are not written are not given here.

What was measured:
cyno GLP-1r (cGLP-1r) = biological target: T1, cyno GLP-1r (cGLP-1r) (Macaca fascicularis, UniProt F8V479); experiment: cAMP assay, cells expressing cyno GLP-1r, 4.2% cyno serum albumin; assay type: cell-based, cynomolgus monkey
T1 construct: expressed in transfected cells
Text: In certain aspects, the assay can also be carried out in medium supplemented with serum albumin that corresponds to the receptor being tested, e.g., human serum albumin for testing cAMP activity at hGIPr or hGLP-1r, rat serum albumin for testing cAMP activity at rGIPr or rGLP-1r, and so on. […] All sample dilutions were made in duplicate.
A frozen cryo-vial of cells expressing the receptor of interest was thawed rapidly in a water-bath, transferred to pre-warmed assay media and spun at 240×g for 5 minutes. Cells were re-suspended in assay buffer at an optimized concentration (e.g., hGLP-1r and hGIPr cells at 0.5×10^5 cells/ml).
To this, 5 μL cell suspension was added and the plates incubated at room temperature for 30 minutes.
cAMP levels were measured using a commercially available cAMP dynamic 2 HTRF kit (Cisbio, Cat #62AM4PEJ), following the two step protocol as per manufacturer's recommendations. In brief; anti-cAMP cryptate (donor fluorophore) and cAMP-d2 (acceptor fluorophore) were made up separately by diluting each 1/20 in conjugate & lysis buffer provided in the kit. […] Data was transformed to % Delta F as described in manufacturer's guidelines and then transformed to percent activation of maximal native agonist response and analysed by 4-parameter logistic fit to determine EC50 values.

[1] = Extended pharmacokinetics, serum ELISA for protein (Fc) detection; assay type: in vivo, CD male rats; settings: 1 mg/kg subcutaneously or intravenously, serum out to 168 hours
Experimental: More extended pharmacokinetic assays to determine protein stability and activity were performed as follows. CD male rats (n=3) were injected subcutaneously or intravenously with 1 mg/kg IP088 or GLP1a-Fc. Periodic serum samples were obtained out to 168 hours. The serum samples were subjected to ELISA for protein (Fc) detection by the following method. ELISA plates (Costar 3690) were coated with Mouse anti-human IgG (JCD-10) 1/500 in PBS (final concentration 1 μg/ml). […] was added to each well and the plates were incubated overnight at 4° C. Following washing with PBS-Tween (PBS-T), the plates were blocked with […] 1% BSA in PBS for 1 h at RT with gentle shaking. Following washing with PBS-T, standards, and dilutions of […] samples were added (50 μl/well), and the plate was incubated for 2 h at RT with gentle shaking. Following washing […] biotinylated mouse anti-human IgG (JCD-10) diluted 1/1000 in ELISA incubation buffer (final concentration 0.5 μg/ml) was added to each well and the plates were incubated for 1 h at RT with gentle shaking. Following washing […] of Streptavidin-HRP diluted 1/1000 in ELISA incubation buffer was added to each well, and the plates were incubated for 45 min at RT with gentle shaking. […]

cyno GCGr (cGCGr) = experiment: cAMP assay, cells expressing cyno GCGr, 4.2% cyno serum albumin; assay type: cell-based, cynomolgus monkey; settings: culture medium containing 4.2% cyno serum albumin
Text: In certain aspects, the assay can also be carried out in medium supplemented with serum albumin that corresponds to the receptor being tested, e.g., human serum albumin for testing cAMP activity at hGIPr or hGLP-1r, rat serum albumin for testing cAMP activity at rGIPr or rGLP-1r, and so on. Low protein binding 384-well plates (Greiner #781280) were used to perform eleven 1 in 5 serial dilutions of test samples that were made in assay medium. All sample dilutions were made in duplicate.
A frozen cryo-vial of cells expressing the receptor of interest was thawed rapidly in a water-bath, transferred to pre-warmed assay media and spun at 240×g for 5 minutes. Cells were re-suspended in assay buffer at an optimized concentration (e.g., hGLP-1r and hGIPr cells at 0.5×10^5 cells/ml). […]
cAMP levels were measured using a commercially available cAMP dynamic 2 HTRF kit (Cisbio, Cat #62AM4PEJ), following the two step protocol as per manufacturer's recommendations. […] Plates were incubated at room temperature for one hour and then read on an Envision (Perkin Elmer) using excitation wavelength of 320 nm and emission wavelengths of 620 nm & 665 nm. Data was transformed to % Delta F as described in manufacturer's guidelines and then transformed to percent activation of maximal native agonist response and analysed by 4-parameter logistic fit to determine EC50 values.

T1 sequence (F8V479 24-463): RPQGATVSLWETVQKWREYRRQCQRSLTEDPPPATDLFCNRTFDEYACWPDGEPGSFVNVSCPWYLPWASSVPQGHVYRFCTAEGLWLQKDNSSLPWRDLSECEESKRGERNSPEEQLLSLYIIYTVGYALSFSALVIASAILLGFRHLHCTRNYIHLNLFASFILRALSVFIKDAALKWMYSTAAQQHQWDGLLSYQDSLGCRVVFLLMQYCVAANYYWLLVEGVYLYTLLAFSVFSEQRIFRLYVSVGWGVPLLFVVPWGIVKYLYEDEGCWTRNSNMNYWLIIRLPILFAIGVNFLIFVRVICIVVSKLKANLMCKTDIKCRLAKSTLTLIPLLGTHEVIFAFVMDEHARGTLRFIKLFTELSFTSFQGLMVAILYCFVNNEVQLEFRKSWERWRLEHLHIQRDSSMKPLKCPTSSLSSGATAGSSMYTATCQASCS

Compound	pEC50 (cyno GLP-1r (cGLP-1r))	PK profile by Fc ELISA (Cmax, bioavailability, half-life), in words [1]	pEC50 (cyno GCGr (cGCGr))	pEC50 (cyno GLP-1r (cGLP-1r); culture medium containing 4.2% cyno serum albumin, read-out: EC50 for cGLP-1r)
CCCCCCCCCCCCCCCC(=O)N[C@@H](CCC(=O)NCCCC[C@H](NC(=O)[C@H](C)NC(=O)[C@H](C)NC(=O)[C@H](CCC(N)=O)NC(=O)CNC(=O)[C@H](CCC(=O)O)NC(=O)[C@H](CC(C)C)NC(=O)[C@H](Cc1ccc(O)cc1)NC(=O)[C@H](CO)NC(=O)[C@H](CO)NC(=O)[C@@H](NC(=O)[C@H](CC(=O)O)NC(=O)[C@H](CO)NC(=O)[C@@H](NC(=O)[C@H](Cc1ccccc1)NC(=O)[C@@H](NC(=O)CNC(=O)[C@H](CCC(=O)O)NC(=O)[C@H](C)NC(=O)[C@@H](N)Cc1cnc[nH]1)[C@@H](C)O)[C@@H](C)O)C(C)C)C(=O)N[C@@H](CCC(=O)O)C(=O)N[C@@H](Cc1ccccc1)C(=O)N[C@H](C(=O)N[C@@H](C)C(=O)N[C@@H](Cc1c[nH]c2ccccc12)C(=O)N[C@@H](CC(C)C)C(=O)N[C@H](C(=O)N[C@@H](CCCNC(=N)N)C(=O)NCC(=O)N[C@@H](CCCNC(=N)N)C(=O)NCC(=O)O)C(C)C)[C@@H](C)CC)C(=O)O [liraglutide]	10.60			
GLP1a-Fc: GLP-1 analogue-Fc (gamma4) fusion control; GLP-1 agonist; Peptide SEQ ID NO:62-Fc, SEQ ID NO:189 (HGEGTFTSDVSSYLEEQAAKEFIAWLVKGR; also: Fc (gamma4) fusion)		equivalent PK profiles	< 6.00	10.96
hGCG: native human glucagon, comparator in cAMP assays			11.44	
